{"source": "patent US6335339B1", "about": "“Triazine antiviral compounds” (Scriptgen Pharmaceuticals, Inc., priority 1998, dated 2002)", "key": {"[1]": {"system": "2.2.15 cells", "assay": "neutral red dye uptake cytotoxicity", "format": "cell-based", "conditions": "9 days treatment, read-out: 50% Cell Death CC50", "outline": "(§1)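 Confluent 2.2.15 cultures, same conditions as antiviral assay, treated daily for 9 days with 4 concentrations (3.3-fold dilutions), triplicate wells. 24 hours after the final dose, cells stained 30 minutes with 0.01% neutral red, dye extracted and A510 read; values as % of untreated cultures, CC50 as 50% cell death.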"}, "[2]": {"assay": "neutral red dye uptake cytotoxicity", "format": "cell-based", "conditions": "human, 2.2.15 cells (confluent cultures), 9 days treatment, read-out: 50% Cell Death CC50", "outline": "as §1"}}, "data": [{"smiles": "C(=NNc1nc(Nc2ccccc2)nc(N2CCCCC2)n1)c1ccccc1", "note": "[Compound 3]", "values": [{"measurement": "CC50", "setting": "[1]", "result": "> 100", "unit": "µM"}]}, {"smiles": "Cc1[nH]c2ccccc2c1C=NNc1nc(Nc2ccccc2)nc(N2CCOCC2)n1", "note": "[Compound 4]", "values": [{"measurement": "CC50", "setting": "[1]", "result": 3.7, "unit": "µM"}]}, {"smiles": "FC(F)(F)c1cccc(Nc2nc(Nc3cccc(Br)c3)nc(N3CCOCC3)n2)c1", "note": "[Compound 38]", "values": [{"measurement": "CC50", "setting": "[1]", "result": 125, "unit": "µM"}]}, {"smiles": "CCCCN(CCCC)c1nc(NN=Cc2c[nH]c3ccccc23)nc(Nc2ccc([N+](=O)[O-])cc2)n1", "note": "[Compound 39]", "values": [{"measurement": "CC50", "setting": "[1]", "result": 5.3, "unit": "µM"}]}, {"smiles": "Cc1ccc(Nc2nc(NN=Cc3ccc(Cl)c(Cl)c3)nc(Nc3ccccc3)n2)c(C)c1", "note": "[Compound 40]", "values": [{"measurement": "CC50", "setting": "[1]", "result": 136, "unit": "µM"}]}, {"smiles": "O=[N+]([O-])c1ccc(Nc2nc(N/N=C/c3cccc(Cl)c3)nc(N3CCCCC3)n2)cc1", "note": "[Compound 41]", "values": [{"measurement": "CC50", "setting": "[1]", "result": "> 300", "unit": "µM"}]}, {"smiles": "Cc1ccc(Nc2nc(NN=Cc3ccc(Cl)cc3)nc(Nc3ccccc3)n2)c(C)c1", "note": "[Compound 42]", "values": [{"measurement": "CC50", "setting": "[1]", "result": 237, "unit": "µM"}]}, {"smiles": "Brc1cc2c(cc1C=NNc1nc(NCc3ccccc3)nc(Nc3ccccc3)n1)OCO2", "note": "[Compound 43]", "values": [{"measurement": "CC50", "setting": "[1]", "result": 87, "unit": "µM"}]}, {"smiles": "COc1ccc(C=NNc2nc(Nc3ccc([N+](=O)[O-])cc3)nc(N3CCCCC3)n2)cc1", "note": "[Compound 44]", "values": [{"measurement": "CC50", "setting": "[1]", "result": 285, "unit": "µM"}]}, {"smiles": "O=[N+]([O-])c1ccc(C=NNc2nc(Nc3ccccc3)nc(NC3CCCCC3)n2)cc1", "note": "[Compound 46]", "values": [{"measurement": "CC50", "setting": "[1]", "result": "> 100", "unit": "µM"}]}, {"smiles": "Cc1ccc(Nc2nc(NN=Cc3cccc(Br)c3)nc(Nc3ccccc3)n2)c(C)c1", "note": "[Compound 49]", "values": [{"measurement": "CC50", "setting": "[1]", "result": 140, "unit": "µM"}]}, {"smiles": "Cc1[nH]c2ccccc2c1C=NNc1nc(NCc2ccccc2)nc(Nc2ccccc2)n1", "note": "[Compound 50]", "values": [{"measurement": "CC50", "setting": "[1]", "result": 30, "unit": "µM"}]}, {"smiles": "Cc1ccc(Nc2nc(NN=Cc3ccc4c(c3)OCO4)nc(Nc3ccccc3)n2)c(C)c1", "note": "[Compound 51]", "values": [{"measurement": "CC50", "setting": "[1]", "result": 130, "unit": "µM"}]}, {"smiles": "O=[N+]([O-])c1cc(C=NNc2nc(Nc3ccccc3)nc(N3CCOCC3)n2)ccc1Cl", "note": "[Compound 52]", "values": [{"measurement": "CC50", "setting": "[1]", "result": 11, "unit": "µM"}]}, {"smiles": "Oc1ccc(Nc2nc(Nc3cccc(C(F)(F)F)c3)nc(N3CCOCC3)n2)cc1", "note": "[Compound 53]", "values": [{"measurement": "CC50", "setting": "[1]", "result": 72, "unit": "µM"}]}, {"smiles": "CC(C)c1ccc(C=NNc2nc(Nc3ccc([N+](=O)[O-])cc3)nc(N3CCCCCC3)n2)cc1", "note": "[Compound 56]", "values": [{"measurement": "CC50", "setting": "[1]", "result": 63, "unit": "µM"}]}, {"smiles": "COc1ccc(C=NNc2nc(Nc3ccccc3)nc(Nc3ccc(C)cc3C)n2)c(OC)c1", "note": "[Compound 61]", "values": [{"measurement": "CC50", "setting": "[1]", "result": 1.3, "unit": "µM"}]}, {"smiles": "CC(C)c1ccc(C=NNc2nc(Nc3ccc([N+](=O)[O-])cc3)nc(N3CCCCC3)n2)cc1", "note": "[Compound 62]", "values": [{"measurement": "CC50", "setting": "[1]", "result": "> 100", "unit": "µM"}]}, {"smiles": "CCN(CC)c1nc(N/N=C/c2ccc([N+](=O)[O-])cc2)nc(Nc2cc(C)ccc2C)n1", "note": "[Compound 63]", "values": [{"measurement": "CC50", "setting": "[1]", "result": "> 100", "unit": "µM"}]}, {"smiles": "CNc1nc(NN=Cc2ccccc2[N+](=O)[O-])nc(Nc2ccccc2)n1", "note": "[Compound 65]", "values": [{"measurement": "CC50", "setting": "[1]", "result": 17, "unit": "µM"}]}, {"smiles": "CC(C)(C)Nc1nc(NCc2ccccc2)nc(NN=Cc2ccc3c(c2)OCO3)n1", "note": "[Compound 67]", "values": [{"measurement": "CC50", "setting": "[1]", "result": "> 100", "unit": "µM"}]}, {"smiles": "CCN(CC)c1nc(NN=Cc2ccc(F)cc2)nc(Nc2ccc([N+](=O)[O-])cc2)n1", "note": "[Compound 68]", "values": [{"measurement": "CC50", "setting": "[1]", "result": "> 300", "unit": "µM"}]}, {"smiles": "CCCCN(CCCC)c1nc(NN=C(C)c2ccccc2)nc(Nc2ccc([N+](=O)[O-])cc2)n1", "note": "[Compound 74]", "values": [{"measurement": "CC50", "setting": "[1]", "result": "> 100", "unit": "µM"}]}, {"smiles": "CCN(CC)c1nc(NN=Cc2cc([N+](=O)[O-])ccc2OC)nc(Nc2cc(C)ccc2C)n1", "note": "[Compound 85]", "values": [{"measurement": "CC50", "setting": "[1]", "result": 209, "unit": "µM"}]}, {"smiles": "Cc1[nH]c2ccccc2c1C=NNc1nc(Nc2ccccc2)nc(N2CCCCC2)n1", "note": "[Compound 88]", "values": [{"measurement": "CC50", "setting": "[1]", "result": "> 100", "unit": "µM"}]}, {"smiles": "C(=Cc1ccccc1)C=NNc1nc(NCc2ccccc2)nc(Nc2ccccc2)n1", "note": "[Compound 91]", "values": [{"measurement": "CC50", "setting": "[1]", "result": "> 300", "unit": "µM"}]}, {"smiles": "CC(C)(C)Nc1nc(NCc2ccccc2)nc(N/N=C/c2ccccc2F)n1", "note": "[Compound 93, 2-fluorobenzaldehyde N-[4-(benzylamino)-6-(tert-butylamino)-1,3,5-triazin-2-yl]hydrazone]", "values": [{"measurement": "CC50 at 9 days", "setting": "[2]", "result": 54, "unit": "µM"}]}, {"smiles": "COc1ccccc1C=NNc1nc(Nc2ccc([N+](=O)[O-])cc2)nc(Nc2ccc(C)c(C)c2)n1", "note": "[Compound 94]", "values": [{"measurement": "CC50", "setting": "[1]", "result": "> 300", "unit": "µM"}]}]}
